The subject of series [1] is MSSA clinical isolates and ATCC strains. In words: MIC and MBC against MSSA clinical isolates and ATCC strains. Also noted: MIC: unit not given here. The series is classed as cell-based, Staphylococcus aureus. The procedure:
Bioscreen-C instrument was used to detect the MIC and MBC of PNA-CPP derivatives against S. aureus MSSA strains. Different concentrations of PNA-CPP derivatives were prepared in 10 mM of sodium bicarbonate buffer pH-7.4 and added to ˜5.0 Log 10 CFUs in a Honey comb Bioscreen-C plate.
After the growth curve assays, the number of colony forming units (CFU) were counted to determine the MIC and MBC of each PNA-CPP derivative against MSSA.
Minimum inhibitory concentration (MIC) analyses were performed as described in Clinical and Laboratory Standards Institute, Methods for Dilution Antimicrobial Susceptibility Tests for Bacteria that Grow Aerobically, 7th ed.; Approved Standard M7-A7; CLSI: Wayne, Pa., USA, 2006; volume 26, No. 2. Vancomycin and Oxacillin were used as controls. MIC was determined as the lowest concentration of agent that inhibits bacterial growth detected at A420-580 nm.

Series [2] in a line: Single ascending intravenous dose tolerability (MTD) in mice. Format: in vivo. The note with it: 10 mg/kg single intravenous bolus dose. How it is done: Single ascending intravenous (IV) dose study was performed to determine tolerability of the drug in mice.
Initially, Compound I-HCl and Compound IV-HCl were administered with a 10 mg/kg intravenous bolus dose using a 10 mL/kg dose volume (0.2 mL) and observed the effects before proceeding to the next higher dose. […] However, higher concentration (>15 mg/kg) had shown adverse effect and death in mice within 30 mins of administration of the drug.

The mark [3] stands for this setting: MSSA table, isolate MRSA#16 [sic].
The mark [4] stands for this setting: MSSA table, isolate MRSA#25 [sic].
The mark [5] stands for this setting: MSSA table, isolate MRSA#27 [sic].
Where [6] appears, read: MSSA table, isolate MRSA#34 [sic].
Setting [7] is: MSSA table, isolate MRSA#38 [sic].
[8] abbreviates: MSSA table, isolate MRSA#57 [sic].
Setting [9] is: MSSA table, isolate MRSA#60 [sic].
Setting [10] is: MSSA table, isolate printed MRSA#49.
Where [11] appears, read: MSSA table, isolate printed MRSA#61.

For the substance “Compound I: PNA-CPP conjugate: PNA cgt cat acg cgg tcc (SEQ ID NO: 51), AEEA linker, CPP BXRXRRXRRXRRXR; FIG. 1 (CGTCATACGCGGTCC; all peptide nucleic acid (PNA); cell-penetrating peptide attached via AEEA linker, further chemistry not fully specified)”, the MBC in series [1] (setting [3]) is 1.56/1.56 ∞g; in series [1] (setting [4]), 3.25 ∞g; in series [1] (setting [5]), 1.56 ∞g; in series [1] (setting [6]) it was 3.25/3.25 ∞g; in series [1] (setting [7]) it was 1.56/1.56 ∞g; in series [1] (MSSA table, isolate MRSA#55), 3.25 ∞g. The MBC is reported as 3.25 ∞g in series [1] (setting [8]); 1.56 ∞g in series [1] (setting [9]); 3.25 ∞g in series [1] (setting [10]); 3.25/3.25 ∞g in series [1] (setting [11]); 3.25 ∞g in series [1] (strain BAA 1721). Also, the MIC in series [1] (setting [3]) was 1.56/1.56 ∞g; in series [1] (setting [4]), 1.56 ∞g; in series [1] (setting [5]) it was 0.78 ∞g; in series [1] (setting [6]), 3.25/3.25 ∞g; in series [1] (setting [7]), 1.56/1.56 ∞g; in series [1] (MSSA table, isolate MRSA#55), 1.56 ∞g. The MIC in series [1] (setting [8]) is on record as 1.56 ∞g; in series [1] (setting [9]), 0.78 ∞g; in series [1] (setting [10]), 1.56 ∞g; in series [1] (setting [11]), 3.25/3.25 ∞g; in series [1] (strain BAA 1721) it was 1.56 ∞g. In addition, the tolerability in mice entry in series [2] was “well tolerated”.

These data come from patent publication US20200325178A1, “PEPTIDE NUCLEIC ACID MOLECULES FOR TREATMENT OF GRAM POSITIVE BACTERIAL INFECTION” (priority 2017, published 2020).
